Laboratory results taken from patent US11116771B2, “G protein-coupled receptor (GPCR) modulation by imipridones” (Oncoceutics, Inc., priority 2016, dated 2021).
Converted amounts (≈) assume the structure as drawn. “Also recorded” adds a separate entry of the source. Where two headings read alike, the source gives them in different places. One block for each compound: values may come before it.

Key:
[1] = tested on: human cancer cells; experiment: Viability of human cancer cells at 72 hours post-treatment; format: cell-based; details: relative to the potency of ONC201; viability of human cancer cells at 72 hours post-treatment
[2] = tested on: Staphylococcus aureus ATCC 700699; experiment: MIC by micro-broth dilution, S. aureus ATCC 700699; format: cell-based
[3] = tested on: Staphylococcus aureus ATCC 33591; experiment: MIC by micro-broth dilution, S. aureus ATCC 33591; format: cell-based
[4] = tested on: Staphylococcus aureus ATCC 29213; experiment: MIC by micro-broth dilution, S. aureus ATCC 29213; format: cell-based
[5] = molecular target: T1, GPR132 (Homo sapiens, UniProt Q9UNW8); experiment: β-arrestin recruitment GPCR reporter assay, GPR132; format: cell-based
T1 sequence (Q9UNW8 1-380): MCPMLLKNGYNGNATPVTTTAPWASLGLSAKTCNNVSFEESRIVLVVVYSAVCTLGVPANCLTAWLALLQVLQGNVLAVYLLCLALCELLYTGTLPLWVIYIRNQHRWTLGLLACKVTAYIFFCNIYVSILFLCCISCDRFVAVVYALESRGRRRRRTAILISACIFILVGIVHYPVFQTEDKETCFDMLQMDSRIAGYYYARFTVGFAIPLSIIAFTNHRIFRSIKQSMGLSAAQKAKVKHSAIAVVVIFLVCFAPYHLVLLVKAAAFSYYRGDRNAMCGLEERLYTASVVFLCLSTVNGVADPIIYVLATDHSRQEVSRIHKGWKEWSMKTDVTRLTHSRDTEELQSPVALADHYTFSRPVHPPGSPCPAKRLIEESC

[6] = tested on: HCT116 cells; experiment: Anticancer efficacy in HCT116 cells; format: cell-based, human; details: HCT116 cells
[7] = molecular target: DRD2L (Homo sapiens, UniProt P14416); experiment: Gaddum/Schild analysis of arrestin recruitment to DRD2L; format: cell-based; details: arrestin recruitment / cAMP reporters (FIGS. 5B, 5C, 5F)
[8] = Jacob et al. 2014; Wagner et al. 2015; cited from earlier work
[9] = molecular target: CXCR7 (Homo sapiens, UniProt P25106); experiment: β-arrestin recruitment GPCR reporter assay, CXCR7; format: cell-based
[10] = Staphylococcus aureus, ATCC700699, 48 h
[11] = Staphylococcus aureus, ATCC33591, 24 h
[12] = Staphylococcus aureus, ATCC29213, 24 h

CXCR7, sequence (P25106 whole entry): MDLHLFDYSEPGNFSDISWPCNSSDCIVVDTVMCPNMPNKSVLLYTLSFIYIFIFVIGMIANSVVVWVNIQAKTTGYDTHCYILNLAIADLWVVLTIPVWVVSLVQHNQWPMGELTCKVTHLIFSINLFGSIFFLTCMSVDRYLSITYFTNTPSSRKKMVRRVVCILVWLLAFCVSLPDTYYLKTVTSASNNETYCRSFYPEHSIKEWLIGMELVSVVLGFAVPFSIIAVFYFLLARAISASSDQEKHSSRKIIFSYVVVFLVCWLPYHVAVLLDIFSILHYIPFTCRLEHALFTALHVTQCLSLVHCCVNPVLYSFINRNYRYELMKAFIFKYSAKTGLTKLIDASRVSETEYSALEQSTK
DRD2L, sequence (P14416 whole entry): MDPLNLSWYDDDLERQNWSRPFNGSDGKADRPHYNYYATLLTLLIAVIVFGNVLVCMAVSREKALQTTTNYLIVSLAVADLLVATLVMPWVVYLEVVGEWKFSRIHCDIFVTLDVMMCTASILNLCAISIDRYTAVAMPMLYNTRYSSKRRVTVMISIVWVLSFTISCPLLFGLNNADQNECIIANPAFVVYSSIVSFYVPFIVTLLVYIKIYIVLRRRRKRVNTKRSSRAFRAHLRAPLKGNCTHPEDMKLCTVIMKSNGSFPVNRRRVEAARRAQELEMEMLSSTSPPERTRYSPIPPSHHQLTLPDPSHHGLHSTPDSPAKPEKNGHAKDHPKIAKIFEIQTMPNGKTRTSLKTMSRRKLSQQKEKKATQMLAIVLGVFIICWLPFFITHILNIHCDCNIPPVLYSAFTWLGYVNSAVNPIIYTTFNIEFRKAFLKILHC

SMILES: Cc1ccccc1CN1C(=O)C2=C(CCNC2)N2CCN=C12 [ONC207]
Relative Potency* [1]: B (B Indicates potency that is within 2-fold of ONC201)
MIC90 ([2]; ATCC 700699 (48 hours)): >100 µg/mL
MIC95 ([2]; ATCC 700699 (48 hours)): >100 µg/mL
MIC99 ([2]; ATCC 700699 (48 hours)): >100 µg/mL
MIC, Visual ([2]; ATCC 700699 (48 hours)): >100 µg/mL
MIC90 ([3]; ATCC 33591, 24 hours): >100 µg/mL
MIC95 ([3]; ATCC 33591, 24 hours): >100 µg/mL
MIC99 ([3]; ATCC 33591, 24 hours): >100 µg/mL
MIC, Visual ([3]; ATCC 33591, 24 hours): >100 µg/mL
MIC95 ([4]; ATCC 29213, 24 hours): >100 µg/mL
MIC99 ([4]; ATCC 29213, 24 hours): >100 µg/mL
MIC, Visual ([4]; ATCC 29213, 24 hours): >100 µg/mL

SMILES: O=C1C2=C(CCN(Cc3ccccc3)C2)N2CCN=C2N1Cc1cc(F)cc(F)c1 [ONC210]
Relative Potency* [1]: B (B Indicates potency that is within 2-fold of ONC201)

SMILES: O=C1C2=C(CCN(Cc3ccccc3)C2)N2CCN=C2N1CCc1ccccc1 [ONC204]
Relative Potency* [1]: C (C Indicates a potency decrease of >2-fold of ONC201)

SMILES: O=C1C2=C(CCNC2)N2CCN=C2N1Cc1ccc(C(F)(F)F)cc1 [ONC221]
Relative Potency* [1]: A (A Indicates a potency increase of >2-fold of ONC201)

SMILES: COc1ccc(CN2C(=O)C3=C(CCN(Cc4ccccc4)C3)N3CCN=C23)cc1 [ONC220]
Relative Potency* [1]: A (A Indicates a potency increase of >2-fold of ONC201)

SMILES: Cc1ccccc1CN1C(=O)C2=C(CCN(CCCN)C2)N2CCN=C12 [ONC216]
Relative Potency* [1]: B (B Indicates potency that is within 2-fold of ONC201)

SMILES: O=C1C2=C(CCN(Cc3ccccc3)C2)N2CCN=C2N1Cc1ccc(C(F)(F)F)cc1F [ONC225]
Relative Potency* [1]: A (A Indicates a potency increase of >2-fold of ONC201)

GPCR activity, GPR132 [5]: highly selective GPR132 agonist
SMILES: O=C1C2=C(CCN(Cc3ccsc3)C2)N2CCN=C2N1Cc1ccc(C(F)(F)F)cc1 [ONC236]
completeness of response [6]: better than ONC201 but not ONC212; also recorded: same as ONC212, and better than ONC201
Relative Potency* [1]: A (A Indicates a potency increase of >2-fold of ONC201)

SMILES: Cc1cc(F)ccc1CN1C(=O)C2=C(CCN(Cc3ccccc3)C2)N2CCN=C12 [ONC218]
Relative Potency* [1]: A (A Indicates a potency increase of >2-fold of ONC201)

SMILES: Cc1ccc(CN2C(=O)C3=C(CCN(Cc4ccccc4)C3)N3CCN=C23)cc1 [ONC223]
Relative Potency* [1]: A (A Indicates a potency increase of >2-fold of ONC201)

SMILES: CN[C@H](CC(C)C)C(=O)N[C@H]1C(=O)N[C@@H](CC(N)=O)C(=O)N[C@H]2C(=O)N[C@H]3C(=O)N[C@H](C(=O)N[C@H](C(=O)O)c4cc(O)cc(O)c4-c4cc3ccc4O)[C@H](O)c3ccc(c(Cl)c3)Oc3cc2cc(c3O[C@@H]2O[C@H](CO)[C@@H](O)[C@H](O)[C@H]2O[C@H]2C[C@](C)(N)[C@H](O)[C@H](C)O2)Oc2ccc(cc2Cl)[C@H]1O [Vancomycin, reference compound]
MIC90 [2, 10]: 12.5 µg/mL (≈ 8.63 µM)
MIC99 [2, 10]: 25 µg/mL (≈ 17.3 µM)
MIC ([2]; Staphylococcus aureus, ATCC700699, 48 h, read-out: MIC95): 25 µg/mL (≈ 17.3 µM)
MIC ([2]; Staphylococcus aureus, ATCC700699, 48 h, read-out: MIC, Visual): 25 µg/mL (≈ 17.3 µM)
MIC90 [3, 11]: 0.39 µg/mL (≈ 0.269 µM)
MIC99 [3, 11]: 0.78 µg/mL (≈ 0.538 µM)
MIC ([3]; Staphylococcus aureus, ATCC33591, 24 h, read-out: MIC95): 0.39 µg/mL (≈ 0.269 µM)
MIC ([3]; Staphylococcus aureus, ATCC33591, 24 h, read-out: MIC, Visual): 0.391 µg/mL (≈ 0.27 µM)
MIC90 [4, 12]: 3.13 µg/mL (≈ 2.16 µM)
MIC99 [4, 12]: 6.25 µg/mL (≈ 4.31 µM)
MIC ([4]; Staphylococcus aureus, ATCC29213, 24 h, read-out: MIC95): 3.13 µg/mL (≈ 2.16 µM)
MIC ([4]; Staphylococcus aureus, ATCC29213, 24 h, read-out: MIC, Visual): 3.12 µg/mL (≈ 2.16 µM)

SMILES: Cc1ccccc1CN1C2=NCCN2C(=O)C2=C1CCN(Cc1ccccc1)C2 [TIC-10]
antagonism of DRD2L [7]: did not inhibit
MIC ([2]; ATCC700699, MDR Staphylococcus aureus (ATCC 700699), read-out: MIC): > 100 µg/mL
MIC90 ([2]; Staphylococcus aureus, ATCC700699, ATCC 700699 (48 hours), read-out: MIC90): > 100 µg/mL
MIC ([2]; Staphylococcus aureus, ATCC700699, ATCC 700699 (48 hours), read-out: MIC95): > 100 µg/mL
MIC99 ([2]; Staphylococcus aureus, ATCC700699, ATCC 700699 (48 hours), read-out: MIC99): > 100 µg/mL
MIC ([2]; Staphylococcus aureus, ATCC700699, ATCC 700699 (48 hours), read-out: MIC, Visual): > 100 µg/mL
MIC ([3]; ATCC33591, Staphylococcus aureus (ATCC 33591), methicillin resistant, read-out: MIC): > 100 µg/mL
MIC90 ([3]; Staphylococcus aureus, ATCC33591, ATCC 33591, 24 hours, read-out: MIC90): > 100 µg/mL
MIC ([3]; Staphylococcus aureus, ATCC33591, ATCC 33591, 24 hours, read-out: MIC95): > 100 µg/mL
MIC99 ([3]; Staphylococcus aureus, ATCC33591, ATCC 33591, 24 hours, read-out: MIC99): > 100 µg/mL
MIC ([3]; Staphylococcus aureus, ATCC33591, ATCC 33591, 24 hours, read-out: MIC, Visual): > 100 µg/mL
anti-cancer activity [8]: lacks anti-cancer activity
GPCR activity, CXCR7 [9]: CXCR7 agonist
MIC ([4]; ATCC29213, wild type Staphylococcus aureus (ATCC 29213), read-out: MIC): > 100 µg/mL
MIC90 ([4]; Staphylococcus aureus, ATCC29213, ATCC 29213, 24 hours, read-out: MIC90): > 100 µg/mL
MIC ([4]; Staphylococcus aureus, ATCC29213, ATCC 29213, 24 hours, read-out: MIC95): > 100 µg/mL
MIC99 ([4]; Staphylococcus aureus, ATCC29213, ATCC 29213, 24 hours, read-out: MIC99): > 100 µg/mL
MIC ([4]; Staphylococcus aureus, ATCC29213, ATCC 29213, 24 hours, read-out: MIC, Visual): > 100 µg/mL

SMILES: Cc1ccccc1CN1C(=O)C2=C(CCN(C)C2)N2CCN=C12 [ONC208]
Relative Potency* [1]: B (B Indicates potency that is within 2-fold of ONC201)

SMILES: Cc1ccccc1CN1C(=O)C2=C(CCN(CCc3ccccc3)C2)N2CCN=C12 [ONC209]
Relative Potency* [1]: B (B Indicates potency that is within 2-fold of ONC201)

SMILES: O=C1C2=C(CCN(Cc3ccc(C(F)(F)F)cc3)C2)N2CCN=C2N1Cc1ccc(C(F)(F)F)cc1 [ONC227]
Relative Potency* [1]: B (B Indicates potency that is within 2-fold of ONC201)
